Molecular target: recombinant β-secretase (Homo sapiens, UniProt P56817)
Experiment: β-secretase
Format: biochemical

recombinant β-secretase, sequence (P56817 46-501): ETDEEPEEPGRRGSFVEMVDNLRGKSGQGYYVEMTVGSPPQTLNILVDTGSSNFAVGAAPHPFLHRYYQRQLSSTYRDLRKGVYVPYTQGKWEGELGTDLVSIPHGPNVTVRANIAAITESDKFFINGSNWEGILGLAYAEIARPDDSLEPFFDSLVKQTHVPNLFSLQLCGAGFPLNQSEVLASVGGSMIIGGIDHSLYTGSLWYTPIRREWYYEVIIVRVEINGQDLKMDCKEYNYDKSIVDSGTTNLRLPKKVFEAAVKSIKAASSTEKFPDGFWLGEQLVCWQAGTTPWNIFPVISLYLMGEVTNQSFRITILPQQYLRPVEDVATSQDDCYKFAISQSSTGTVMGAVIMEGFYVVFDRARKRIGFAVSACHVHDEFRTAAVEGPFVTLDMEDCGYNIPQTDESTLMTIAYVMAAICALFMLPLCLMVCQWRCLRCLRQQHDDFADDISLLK

Cc1cc(C)n(C[C@@H](C)C(=O)N[C@@H](CNC(=O)OC(C)(C)C)C(=O)N[C@@H](CC(C)C)[C@@H](O)C[C@@H](C)C(=O)N[C@H](C(=O)NCC(C)C)C(C)C)n1 [Inhibitor 3b]
drop in potency with respect to 3a (ratio of BACE1 Ki to that of 3a): ~40 fold

Cc1csc(C[C@H](C)C(=O)N[C@@H](CNC(=O)OC(C)(C)C)C(=O)N[C@@H](CC(C)C)[C@@H](O)C[C@@H](C)C(=O)N[C@H](C(=O)NCC(C)C)C(C)C)n1 [Inhibitor 4c]
improvement over inhibitor 4a (ratio of BACE1 potency to that of 4a): over 120 fold

Reference: paper PMC4297543 (Bioorganic & medicinal chemistry letters, 2014)
